# In ChEMBL document CHEMBL1926642, “Relevance of the C-5 position to schweinfurthin induced cytotoxicity” (2011):
# Key:
# Type in all cases: functional
# SNB-75 = assay: Growth inhibition of human SNB75 cells after 48 hrs by sulforhodamine B assay; settings: SNB-75, 48 h
# SW-620 = assay: Growth inhibition of human SW620 cells after 48 hrs by sulforhodamine B assay; settings: SW-620, 48 h
# HOP-62 = assay: Growth inhibition of human HOP62 cells after 48 hrs by sulforhodamine B assay; settings: HOP-62, 48 h
# HOP-92 = assay: Growth inhibition of human HOP92 cells after 48 hrs by sulforhodamine B assay; settings: HOP-92, 48 h
# MDA-MB-435 = assay: Growth inhibition of human MDA-MB-435 cells after 48 hrs by sulforhodamine B assay; settings: MDA-MB-435, 48 h
# COLO 205 = assay: Growth inhibition of human COLO205 cells after 48 hrs by sulforhodamine B assay; settings: COLO 205, 48 h
# IGROV-1 = assay: Growth inhibition of human IGROV1 cells after 48 hrs by sulforhodamine B assay; settings: IGROV-1, 48 h
# EKVX = assay: Growth inhibition of human EKVX cells after 48 hrs by sulforhodamine B assay
# BT-549 = assay: Growth inhibition of human BT549 cells after 48 hrs by sulforhodamine B assay; settings: BT-549, 48 h
# OVCAR-8 = assay: Growth inhibition of human OVCAR8 cells after 48 hrs by sulforhodamine B assay; settings: OVCAR-8, 48 h
# PC-3 = assay: Growth inhibition of human PC3 cells after 48 hrs by sulforhodamine B assay; settings: PC-3, 48 h
# KM12 = assay: Growth inhibition of human KM12 cells after 48 hrs by sulforhodamine B assay; settings: KM12, 48 h
# HT-29 = assay: Growth inhibition of human HT-29 cells after 48 hrs by sulforhodamine B assay; settings: HT-29, 48 h
# UO-31 = assay: Growth inhibition of human UO31 cells after 48 hrs by sulforhodamine B assay; settings: UO-31, 48 h
# TK-10 = assay: Growth inhibition of human TK10 cells after 48 hrs by sulforhodamine B assay; settings: TK-10, 48 h
# U-251 = assay: Growth inhibition of human U251 cells after 48 hrs by sulforhodamine B assay; settings: U-251, 48 h
# A549 = assay: Growth inhibition of human A549 cells after 48 hrs by sulforhodamine B assay; settings: A549, 48 h
# NCI-H460 = assay: Growth inhibition of human NCI-H460 cells after 48 hrs by sulforhodamine B assay; settings: NCI-H460, 48 h
# K562 = assay: Growth inhibition of human K562 cells after 48 hrs by sulforhodamine B assay; settings: K562, 48 h
# UACC-257 = assay: Growth inhibition of human UACC257 cells after 48 hrs by sulforhodamine B assay; settings: UACC-257, 48 h
# SF-295 = assay: Growth inhibition of human SF295 cells after 48 hrs by sulforhodamine B assay; settings: SF-295, 48 h
# SK-MEL-5 = assay: Growth inhibition of human SK-MEL-5 cells after 48 hrs by sulforhodamine B assay; settings: SK-MEL-5, 48 h
# MCF7 = assay: Growth inhibition of human MCF7 cells after 48 hrs by sulforhodamine B assay; settings: MCF7, 48 h
# CAKI-1 = assay: Growth inhibition of human Caki1 cells after 48 hrs by sulforhodamine B assay; settings: CAKI-1, 48 h
# 786-0 = assay: Growth inhibition of human 786-0 cells after 48 hrs by sulforhodamine B assay; settings: 786-0, 48 h
# M14 = assay: Growth inhibition of human M14 cells after 48 hrs by sulforhodamine B assay; settings: M14, 48 h
# [1] = read-out: pLC50 (the source's name) (converted)
structure (smiles),measurement,setting,value
COc1cc(/C=C/c2ccc3c(c2)C[C@@H]2C(C)(C)[C@H](O)CC[C@@]2(C)O3)cc(O)c1C/C=C(\C)CCC=C(C)C,GI50,SNB-75,5.37 µM
same,LC50,SNB-75,> 100 µM
same,TGI,SNB-75; read-out: pTGI (converted),42.7 µM
same,GI50,SW-620,11.7 µM
same,LC50,SW-620,53.7 µM
same,TGI,SW-620; read-out: pTGI (converted),25.1 µM
same,GI50,HOP-62,6.17 µM
same,LC50,HOP-62,52.5 µM
same,TGI,HOP-62; read-out: pTGI (converted),20 µM
same,GI50,HOP-92,17.8 µM
same,LC50,HOP-92,> 100 µM
same,TGI,HOP-92; read-out: pTGI (converted),49 µM
same,GI50,MDA-MB-435,17.4 µM
same,LC50,MDA-MB-435,81.3 µM
same,TGI,MDA-MB-435; read-out: pTGI (converted),38 µM
same,GI50,COLO 205,3.63 µM
same,LC50,COLO 205,49 µM
same,TGI,COLO 205; read-out: pTGI (converted),11 µM
same,GI50,IGROV-1,14.5 µM
same,LC50,IGROV-1,70.8 µM
same,TGI,IGROV-1; read-out: pTGI (converted),31.6 µM
same,GI50,EKVX,14.5 µM
same,LC50 (50% lethal concentration),EKVX,> 100 µM
same,TGI,EKVX; read-out: pTGI (converted),57.5 µM
same,GI50,BT-549,5.01 µM
same,LC50,BT-549,49 µM
same,TGI,BT-549; read-out: pTGI (converted),17.8 µM
same,GI50,OVCAR-8,25.1 µM
same,LC50,OVCAR-8,> 100 µM
same,TGI,OVCAR-8; read-out: pTGI (converted),74.1 µM
same,GI50,PC-3,8.51 µM
same,CC50,PC-3; [1],> 100 µM
same,TGI,PC-3; read-out: pTGI (converted),56.2 µM
same,GI50,KM12,2.63 µM
same,LC50,KM12,21.9 µM
same,TGI,KM12; read-out: pTGI (converted),6.46 µM
same,GI50,HT-29,1.95 µM
same,LC50 (concentration killing 50% of cells),HT-29,23.4 µM
same,TGI,HT-29; read-out: pTGI (converted),5.01 µM
same,GI50,UO-31,5.01 µM
same,LC50,UO-31,64.6 µM
same,TGI,UO-31; read-out: pTGI (converted),20 µM
same,GI50,TK-10,29.5 µM
same,LC50,TK-10,> 100 µM
same,TGI,TK-10; read-out: pTGI (converted),79.4 µM
same,GI50,U-251,5.62 µM
same,LC50,U-251,63.1 µM
same,TGI,U-251; read-out: pTGI (converted),22.4 µM
same,LC50,A549,> 100 µM
same,GI50,A549; read-out: GI50,13.2 µM
same,GI50,A549; read-out: pGI50 (converted),13.2 µM
same,TGI,A549; read-out: pTGI (converted),39.8 µM
same,GI50,NCI-H460,7.41 µM
same,LC50 (concentration killing 50% of cells),NCI-H460,55 µM
same,TGI,NCI-H460; read-out: pTGI (converted),21.9 µM
same,GI50,K562,5.5 µM
same,LC50,K562,> 100 µM
same,TGI,K562; read-out: pTGI (converted),33.9 µM
same,GI50,UACC-257,22.9 µM
same,LC50,UACC-257,> 100 µM
same,TGI,UACC-257; read-out: pTGI (converted),55 µM
same,LC50,SF-295,38.9 µM
same,GI50,SF-295; read-out: GI50,1.66 µM
same,GI50,SF-295; read-out: pGI50 (converted),1.66 µM
same,TGI,SF-295; read-out: pTGI (converted),5.89 µM
same,GI50,SK-MEL-5,8.71 µM
same,LC50,SK-MEL-5,49 µM
same,TGI,SK-MEL-5; read-out: pTGI (converted),21.4 µM
same,GI50,MCF7,16.6 µM
same,LC50,MCF7,79.4 µM
same,TGI,MCF7; read-out: pTGI (converted),36.3 µM
same,GI50,CAKI-1,5.37 µM
same,LC50,CAKI-1,67.6 µM
same,TGI,CAKI-1; read-out: pTGI (converted),20 µM
same,GI50,786-0,2.95 µM
same,CC50,786-0; [1],42.7 µM
same,TGI,786-0; read-out: pTGI (converted),12 µM
same,GI50,M14,13.8 µM
same,LC50,M14,56.2 µM
same,TGI,M14; read-out: pTGI (converted),27.5 µM
